Measured values published in patent publication US5728709A, “Alkyl and aralkyl-substituted pyrrolocarbazole derivatives that stimulate platelet production” (Kyowa Hakko Kogyo Co., Ltd., priority 1995, dated 1998).
Where two headings read alike, the source gives them in different places.

Key:
[1] = system: Platelet Production; assay: Platelet Production-Stimulating Activity in Mice; assay type: in vivo; details: Mus musculus, 360 h, male Balb/c mice, 15th day, control = 100, read-out: Ratio of increase (number of platelets, A/B×100); for response vs control in vivo at 50 mg/kg: 50 mg/kg i.p. once a day for 5 days
Description: A test compound was intraperitoneally (i. p.) or subcutaneously (s. c.) administered to 7-week-old male Balb/c mice once a day for consecutive 5 days (test group, 4 mice per group). A control group (4 mice per group) was administered only a solvent (5% Tween 80/water) alone. On the 15th day from the start of the administration, blood was collected from the fundus oculi vein of each mouse, and the number of platelets was counted with a micro counter (Model CC-180A, manufactured by Toa Iryo Denshi Co.). The rate (%) of increase in the number of platelets in the test group which had been administered test compounds over the control group was calculated according to the following formula to evaluate the effect of the test compound.
[Ratio of increase]=A/B×100
A: the number of platelets in the test group
B: the number of platelets in the control group

[2] = system: Megakaryocyte Colony Formation; assay: Megakaryocyte Colony Formation-Stimulating Activity; assay type: cell-based, Balb/c mouse; details: IL-3 present, 7 days culture, relative to control (IL-3 alone) = 100
Description: An eight-week-old Balb/c mouse was killed. Its femurs and cervical vertebrae were taken out and both ends thereof were cut off. Bone marrow cells were collected from the pieces cut off from the femurs and cervical vertebrae using a syringe containing IMDM (430-2200EA manufactured by Gibco Co.), and blown into a test tube. The test tube was allowed to stand for 5 minutes, and the supernatant was collected with a pipet. Each of the test compounds at various concentrations was separately added to a separate reaction mixture corltaining the bone marrow cells (50,000 cells), bovine serum albumin (2%: A4508, manufactured by Sigma Co.), transferrin (600 μg/ml: 652202, manufactured by Boehringer Mannheim Co.), IL-3 (100 U/ml) , cholesterol (16 μg/ml: 036-0641, manufactured by Wako Co.) and agar (0.6%: 0142-02, manufactured by Difco Laboratories);Then, 1 ml each of the mixtures was put into a 35-mm dishes (manufactured by Lux Co.); and cultured at 37° C., 5% CO2, and relative humidity of not less than 95%, for 7 days. A control was prepared by adding IL-3 alone to the bone marrow cells. After the completion of the culturing, the resultant agar was dried by using filter paper (1001-055, manufactured by Whatman Co.), fixed with 2.5% glutaraldehyde, followed by acetylcholinesterase staining (ACHE staining).
ACHE staining was carried out according to the following method:
ACHE staining: To each sample was added a solution containing 0.67 mg/ml acetylthiocholine iodide, 2.94 mg/ml sodium citrate, 7.5 mg/ml copper (II) sulfate, and 1.65 mg/ml potassium ferricyanide. Then, the mixture was allowed to stand at room temperature in the dark for 4 to 6 hours.
A group of 4 or more megakaryocytes which were stained reddish brown was regarded as one colony, and the number of colonies per dish was calculated using a microscope.
The results are shown in Table 5 as values relative to the control. (In the table, the relative values were calculated on the basis of the control defined as 100).

[3] = sc, 10 mg/kg s.c. once a day for 5 days
[4] = sc, free base, 10 mg/kg s.c. once a day for 5 days

Row | SMILES | Rel. Value (megakaryocyte colony formation, control defined as 100) ([2]; 1 nM) | Rel. Value (megakaryocyte colony formation, control defined as 100) ([2]; 10 nM) | further results
1 | CN(C)CCNc1ccccc1-c1cc2c(c3c1C(=O)N(C)C3=O)c1ccccc1n2C [Compound 40] | 138 | – | response vs control in vivo at 50 mg/kg ([1]; ip): 174%
2 | CN(C)CC(=O)Nc1ccccc1-c1cc2c(c3c1C(=O)N(C)C3=O)c1ccccc1n2C [Compound 56] | 116 | – | –
3 | CN(C)CCCNc1ccccc1-c1cc2c(c3c1C(=O)N(C)C3=O)c1ccccc1n2C [Compound 51] | – | 141 | –
4 | CC(=O)c1ccc2c(c1)c1c3c(c(-c4ccccc4OCCN(C)C)cc1n2C)C(=O)N(C)C3=O [Compound 180] | – | – | response vs control in vivo at 10 mg/kg [1, 3]: 189%
5 | CN(C)CCCn1c2ccccc2c2c3c(c(-c4ccccc4[N+](=O)[O-])cc21)C(=O)N(C)C3=O [Compound 24] | 125 | – | response vs control in vivo at 10 mg/kg ([1]; ip, 10 mg/kg i.p. once a day for 5 days): 125%
6 | CCN(CC)CCC(=O)Nc1ccccc1-c1cc2c(c3c1C(=O)N(C)C3=O)c1ccccc1n2C [Compound 60] | 110 | – | –
7 | O=C1c2c(-c3ccccc3[N+](=O)[O-])cc3[nH]c4ccccc4c3c2C(=O)N1Cc1ccccc1 [Compound 1] | 147 | – | –
8 | CN(C)CCOc1ccc(OCc2ccccc2)cc1-c1cc2c(c3c1C(=O)N(C)C3=O)c1ccccc1n2C [Compound 147] | – | – | response vs control in vivo at 10 mg/kg [1, 3]: 154%
9 | CN(C)CCCn1c2ccccc2c2c3c(c(-c4ccccc4N(C)C)cc21)C(=O)N(C)C3=O [Compound 26] | – | 110 | –
10 | CN(C)CCCn1c2ccccc2c2c3c(c(-c4ccccc4NCCN(C)C)cc21)C(=O)N(C)C3=O [Compound 36] | – | 149 | –
11 | CN1C(=O)c2c(-c3ccccc3NCCO)cc3c(c2C1=O)c1ccccc1n3C [Compound 37] | 130 | – | –
12 | CN(C)CCOc1ccc(N(C)C)cc1-c1cc2c(c3c1C(=O)N(C)C3=O)c1ccccc1n2C [Compound 170] | 125 | – | response vs control in vivo at 10 mg/kg [1, 3]: 138%
13 | CN1C(=O)c2c(-c3ccccc3[N+](=O)[O-])cc3[nH]c4ccccc4c3c2C1=O [Compound 10] | 120 | – | –
14 | CN1C(=O)c2c(-c3ccccc3N)cc3c(c2C1=O)c1ccccc1n3Cc1ccc(N)cc1 [Compound 17] | 123 | – | –
15 | CN(C)CCOc1ccc(Br)cc1-c1cc2c(c3c1C(=O)N(C)C3=O)c1ccccc1n2C [Compound 130] | – | – | response vs control in vivo at 10 mg/kg [1, 4]: 295%
16 | CN(C)CCNc1ccc([N+](=O)[O-])cc1-c1cc2c(c3c1C(=O)N(C)C3=O)c1ccccc1n2C [Compound 79] | – | – | response vs control in vivo at 25 mg/kg ([1]; ip, 25 mg/kg i.p. once a day for 5 days): 180%
17 | CN(C)CCOc1ccc(C=O)cc1-c1cc2c(c3c1C(=O)N(C)C3=O)c1cc(Br)ccc1n2C [Compound 160] | – | 120 | response vs control in vivo at 10 mg/kg [1, 3]: 117%
18 | CN(C)CCOc1ccccc1-c1cc2c(c3c1C(=O)N(C)C3=O)c1cc(C=O)ccc1n2C [Compound 177] | – | 120 | –
19 | CN(C)CCn1c(=O)c2c(c3c(c4c5ccccc5n(C)c42)C(=O)N(C)C3=O)c2ccccc21 [Compound 93] | – | – | response vs control in vivo at 50 mg/kg ([1]; ip): 176%; Rel. Value (megakaryocyte colony formation, control defined as 100) ([2]; 0.1 nM): 119
20 | CN(C)CCOc1c(N)cccc1-c1cc2c(c3c1C(=O)N(C)C3=O)c1ccccc1n2C [Compound 203] | – | – | response vs control in vivo at 10 mg/kg [1, 3]: 146%
21 | CC(CN(C)C)Oc1ccccc1-c1cc2c(c3c1C(=O)N(C)C3=O)c1ccccc1n2C (stereo not shown) [Compound 102] | 142 | – | response vs control in vivo at 10 mg/kg [1, 4]: 123%
22 | CN(C)CCOc1ccccc1-c1cc2c(c3c1C(=O)N(C)C3=O)c1ccccc1n2C [Compound 66] | – | 119 | response vs control in vivo at 50 mg/kg ([1]; ip): 206%
23 | CN1C(=O)c2c(-c3ccccc3[N+](=O)[O-])cc3c(c2C1=O)c1ccccc1n3CCCCN1CCOCC1 [Compound 34] | – | – | Rel. Value (megakaryocyte colony formation, control defined as 100) ([2]; 0.1 nM): 114
24 | CN1C(=O)c2c(-c3ccccc3N)cc3[nH]c4ccccc4c3c2C1=O [Compound 11] | – | 128 | –
25 | CN(C)CCNc1ccc(Br)cc1-c1cc2c(c3c1C(=O)N(C)C3=O)c1ccccc1n2C [Compound 82] | – | 119 | –
26 | Nc1ccccc1-c1cc2[nH]c3ccccc3c2c2c1C(=O)N(Cc1ccccc1)C2=O [Compound 5] | 117 | – | response vs control in vivo at 50 mg/kg ([1]; ip): 111%
